What was measured:
pJAK2, pSTAT5, pSTAT3 = assay: Time-course immunoblots/ELISA of JAK2/STAT crosstalk in breast cancer lines in vitro; type: cell-based, human, mouse; conditions: for Start of JAK2 activation (pJAK2/pSTAT5 upregulation) after adding the compound: single PI3K or mTOR inhibition, in vitro time course; for pJAK2 and pSTAT5 (JAK2/STAT5 activation) in vitro: after 4 hours-8 hours of treatment
IL-8 = IL-8 levels in tumors and plasma of treated mice; type: in vivo; conditions: mice treated as in FIG. 5
From the text: (§1) Animal experiments. SCID/beige, SCID/NOD and Balb/c mice (Jackson Labs) were maintained under specific pathogen-free conditions and were used in compliance with protocols approved by the Institutional Animal Care and Use Committees of the FMI, which conform to institutional and national regulatory standards on experimental animal usage. For orthotopical engraftment of breast cancer cell lines, 1×10^6 MDA-MB-468, 1×10^6 MDA-MB-231-LM2 and 0.5×10^6 […] or 4T-1-GFP cells were suspended in a 100-μl mixture of Basement Membrane Matrix Phenol Red-free (BD Biosciences) and PBS 1:1 and injected into the mammary gland 4 or between mammary glands 2 and 3. Primary patient breast tumors were cut into 1 mm×1 mm pieces and transplanted into mammary gland 4. Tumor-bearing mice were randomized based on tumor volume prior to the initiation of treatment, which was initiated when average tumor volume was at least 100 mm^3. […] Tumors were measured every 3 to 4 days with vernier calipers, and tumor volumes were calculated by the formula 0.5×(larger diameter)×(smaller diameter)^2. End point tumor sizes were analyzed for synergism using the formula AB/C<A/C×B/C, where C=tumor volume VHC, A=tumor volume compound 1, B=tumor volume compound 2, AB=tumor volume combination (Clarke, 1997).

[1] = test system: MDA231 LM2 and 4T-1 tumors; assay: Lung metastasis (metastatic index) in tumor-bearing mice; type: in vivo; conditions: mice bearing MDA231 LM2 shJAK2 or shNT tumors treated with BSK
From the text: as §1, with “4.” for “4. Tumor-bearing mice were randomized based on tumor volume prior to the initiation of treatment, which was initiated when average tumor volume was at least 100 mm^3.”
Immunohistochemistry. […] Mouse lungs were fixed in Bouin's fixative and visible metastatic lung nodules were counted using a binocular.

pJAK2, pSTAT5 = assay: pJAK2/pSTAT5 in xenografts of treated mice; parameters: species or system SCID/beige mice; conditions: 30 mg/kg once, after 8 hours of treatment
From the text: as §1

pSTAT5/STAT5 [2] = assay: pSTAT5/STAT5 immunoblotting with densitometry in BEZ-treated Balb/c mouse breast cancer lines; type: cell-based; conditions: 300 nM BEZ, 8 h, relative to DMSO
[3] = test system: JAK2/STAT5 and IL-8 secretion; assay: JAK2/STAT5 and IL-8 in primary human triple-negative breast tumor xenografts; type: in vivo, human tumors in immunodeficient mice; conditions: 30 mg/kg BEZ, 3-4 days, xenografts in immunodeficient mice
From the text: as §1

pJAK2/JAK2 [4] = assay: pJAK2/JAK2 ELISA in BEZ-treated Balb/c mouse breast cancer lines; type: cell-based; conditions: 300 nM BEZ, 8 h, relative to DMSO
IL-8 secretion = IL-8 secretion ELISA in BEZ-treated breast cancer cell lines; type: cell-based, human; conditions: 300 nM BEZ; for IL8 BEZ vs. DMSO: 20 h, relative to DMSO
pAKT, pS6 = assay: Time-course immunoblots of target inhibition (pAKT, pS6) in breast cancer lines; type: cell-based, human, mouse; conditions: MDA 468, MDA 231 LM2 and 4T-1 lines; single dose; up to 20 hours after treatment
pSTAT5/STAT5 [5] = assay: pSTAT5/STAT5 immunoblotting with densitometry in BEZ-treated human breast cancer cell lines; type: cell-based; conditions: 300 nM BEZ, 8 h, relative to DMSO
pJAK2/JAK2 [6] = assay: pJAK2/JAK2 ELISA in BEZ-treated human breast cancer cell lines; type: cell-based; conditions: 300 nM BEZ, 8 h, relative to DMSO

## Fc1cc(-c2cccc3ncc(-c4cnn(C5CCNCC5)c4)nc23)cc(F)c1CN1CCOCC1 [COMPOUND D, 8-(3,5-Difluoro-4-morpholin-4-ylmethyl-phenyl)-2-(1-piperidin-4-yl-1H-pyrazol-4-yl)-quinoxaline]
pJAK2, pSTAT5, pSTAT3; JAK2 inhibition added to BEZ treatment, MDA 468 cells, 8 h BEZ
  Upregulation of pSTAT5 by BEZ: counteracted
IL-8
  IL-8 secretion in vivo (tumors and plasma): reduced
[1]
  Metastasis (metastatic index), BSK alone: reduces

## Nc1cc(C(F)(F)F)c(-c2cc(N3CCOCC3)nc(N3CCOCC3)n2)cn1 [COMPOUND C, 5-(2,6-di-morpholin-4-yl-pyrimidin-4-yl)-4-trifluoromethyl-pyridin-2-ylamine]
pJAK2, pSTAT5, pSTAT3
  Start of JAK2 activation (pJAK2/pSTAT5 upregulation) after adding the compound: 8 hours

## Cn1c(=O)n(-c2ccc(C(C)(C)C#N)cc2)c2c3cc(-c4cnc5ccccc5c4)ccc3ncc21 [COMPOUND A, 2-methyl-2-[4-(3-methyl-2-oxo-8-quinolin-3-yl-2,3-dihydro-imidazo[4,5-c]quinolin-1-yl)-phenyl]-propionitrile]
pJAK2, pSTAT5
  pJAK2 and pSTAT5 (JAK2/STAT5 activation) in vivo: activates
pJAK2, pSTAT5; listed as BEZ
  pJAK2 and pSTAT5 (JAK2/STAT5 activation) in vivo: considerable upregulation
pSTAT5/STAT5 [2]; 4T-1 cells
  pSTAT5/STAT5 BEZ vs. DMSO: 2.65
pSTAT5/STAT5 [2]; 168FARN cells
  pSTAT5/STAT5 BEZ vs. DMSO: 1.9
[3]
  JAK2/STAT5 and IL-8 secretion in human primary triple-negative breast tumors: activates
pJAK2, pSTAT5, pSTAT3; 300 nM BEZ
  Pattern of JAK2/STAT5 activation: biphasic activation
pJAK2, pSTAT5, pSTAT3; BEZ treatment
  Levels of pSTAT3: largely unaffected
pJAK2, pSTAT5, pSTAT3
  pJAK2 and pSTAT5 (JAK2/STAT5 activation) in vitro: activates
pJAK2, pSTAT5, pSTAT3; listed as BEZ
  pJAK2 and pSTAT5 (JAK2/STAT5 activation) in vitro: considerable upregulation
pJAK2/JAK2 [4]; 4T-1 cells
  pJAK2/JAK2 BEZ vs. DMSO: 2.02
pJAK2/JAK2 [4]; 168FARN cells
  pJAK2/JAK2 BEZ vs. DMSO: 1.74
IL-8 secretion; breast cancer cells
  IL-8 secretion in breast cancer: induces
IL-8 secretion; BT474 cells
  IL8 BEZ vs. DMSO: 0.99
IL-8 secretion; BT549 cells
  IL8 BEZ vs. DMSO: 1.42
IL-8 secretion; HCC1937 cells
  IL8 BEZ vs. DMSO: 1.06
IL-8 secretion; HCC1954 cells
  IL8 BEZ vs. DMSO: 1.22
IL-8 secretion; Hs578t cells
  IL8 BEZ vs. DMSO: 1.08
IL-8 secretion; MCF7 cells
  IL8 BEZ vs. DMSO: 0.81
IL-8 secretion; MCF10A cells
  IL8 BEZ vs. DMSO: 1.23
IL-8 secretion; MDA 231 LM2 cells
  IL8 BEZ vs. DMSO: 2.04
IL-8 secretion; MDA 231 cells
  IL8 BEZ vs. DMSO: 1.41
IL-8 secretion; MDA415 cells
  IL8 BEZ vs. DMSO: 0.91
IL-8 secretion; MDA 436 cells
  IL8 BEZ vs. DMSO: 1.41
IL-8 secretion; MDA 468 cells
  IL8 BEZ vs. DMSO: 1.91
IL-8 secretion; SKBR3 cells
  IL8 BEZ vs. DMSO: 1.01
IL-8 secretion; SUM159 cells
  IL8 BEZ vs. DMSO: 1.24
IL-8 secretion; T47D cells
  IL8 BEZ vs. DMSO: 0.71
IL-8 secretion; ZR75-1 cells
  IL8 BEZ vs. DMSO: 1.55
IL-8
  IL-8 secretion in vivo (tumors and plasma): enhanced
pAKT, pS6
  pAKT levels: reduced
  pS6 levels: completely blocked
pSTAT5/STAT5 [5]; BT474 cells
  pSTAT5/STAT5 BEZ vs. DMSO: 1.02
pSTAT5/STAT5 [5]; BT549 cells
  pSTAT5/STAT5 BEZ vs. DMSO: 1.61
pSTAT5/STAT5 [5]; HCC1937 cells
  pSTAT5/STAT5 BEZ vs. DMSO: 1.66
pSTAT5/STAT5 [5]; HCC1954 cells
  pSTAT5/STAT5 BEZ vs. DMSO: 1.05
pSTAT5/STAT5 [5]; Hs578t cells
  pSTAT5/STAT5 BEZ vs. DMSO: 0.96
pSTAT5/STAT5 [5]; MCF7 cells
  pSTAT5/STAT5 BEZ vs. DMSO: 0.92
pSTAT5/STAT5 [5]; MCF10A cells
  pSTAT5/STAT5 BEZ vs. DMSO: 3.21
pSTAT5/STAT5 [5]; MDA 231 LM2 cells
  pSTAT5/STAT5 BEZ vs. DMSO: 2.32
pSTAT5/STAT5 [5]; MDA 231 cells
  pSTAT5/STAT5 BEZ vs. DMSO: 1.58
pSTAT5/STAT5 [5]; MDA 436 cells
  pSTAT5/STAT5 BEZ vs. DMSO: 1.77
pSTAT5/STAT5 [5]; MDA 468 cells
  pSTAT5/STAT5 BEZ vs. DMSO: 2.11
pSTAT5/STAT5 [5]; SKBR3 cells
  pSTAT5/STAT5 BEZ vs. DMSO: 0.82
pSTAT5/STAT5 [5]; SUM159 cells
  pSTAT5/STAT5 BEZ vs. DMSO: 1.09
pSTAT5/STAT5 [5]; T47D cells
  pSTAT5/STAT5 BEZ vs. DMSO: 0.62
pSTAT5/STAT5 [5]; ZR75-1 cells
  pSTAT5/STAT5 BEZ vs. DMSO: 1.62
pJAK2/JAK2 [6]; BT474 cells
  pJAK2/JAK2 BEZ vs. DMSO: 0.95
pJAK2/JAK2 [6]; BT549 cells
  pJAK2/JAK2 BEZ vs. DMSO: 1.21
pJAK2/JAK2 [6]; HCC1937 cells
  pJAK2/JAK2 BEZ vs. DMSO: 1.62
pJAK2/JAK2 [6]; HCC1954 cells
  pJAK2/JAK2 BEZ vs. DMSO: 1.32
pJAK2/JAK2 [6]; Hs578t cells
  pJAK2/JAK2 BEZ vs. DMSO: 1.18
pJAK2/JAK2 [6]; MCF7 cells
  pJAK2/JAK2 BEZ vs. DMSO: 0.74
pJAK2/JAK2 [6]; MCF10A cells
  pJAK2/JAK2 BEZ vs. DMSO: 2.11
pJAK2/JAK2 [6]; MDA 231 LM2 cells
  pJAK2/JAK2 BEZ vs. DMSO: 2.18
pJAK2/JAK2 [6]; MDA 231 cells
  pJAK2/JAK2 BEZ vs. DMSO: 1.25
pJAK2/JAK2 [6]; MDA415 cells
  pJAK2/JAK2 BEZ vs. DMSO: 0.88
pJAK2/JAK2 [6]; MDA 436 cells
  pJAK2/JAK2 BEZ vs. DMSO: 1.53
pJAK2/JAK2 [6]; MDA 468 cells
  pJAK2/JAK2 BEZ vs. DMSO: 2.32
pJAK2/JAK2 [6]; SKBR3 cells
  pJAK2/JAK2 BEZ vs. DMSO: 0.65
pJAK2/JAK2 [6]; SUM159 cells
  pJAK2/JAK2 BEZ vs. DMSO: 0.92
pJAK2/JAK2 [6]; T47D cells
  pJAK2/JAK2 BEZ vs. DMSO: 1.05
pJAK2/JAK2 [6]; ZR75-1 cells
  pJAK2/JAK2 BEZ vs. DMSO: 1.36

## CO[C@H]1C[C@@H]2CC[C@@H](C)[C@@](O)(O2)C(=O)C(=O)N2CCCC[C@H]2C(=O)O[C@H]([C@H](C)C[C@@H]2CC[C@@H](OCCO)[C@H](OC)C2)CC(=O)[C@H](C)/C=C(\C)[C@@H](O)[C@@H](OC)C(=O)[C@H](C)C[C@H](C)/C=C/C=C/C=C/1C [RAD001, everolimus, reference compound]
pJAK2, pSTAT5, pSTAT3
  Start of JAK2 activation (pJAK2/pSTAT5 upregulation) after adding the compound: 4 hours

— patent publication US20140343128A1, “Combination of a phosphoinositide 3-kinase inhibitor and a modulator of the Janus Kinase 2 - Signal Transducer and Activator of Transcription 5 pathway” (NOVARTIS FORSCHUNGSSTIFTUNG, ZWEIGNIEDERLASSUNG FRIEDRICH …, priority 2011, published 2014)
